Key:
Type in all cases: cell-based, human
[1] = system: Patient B1 breast cancer cells; test: CELx Anti-Proliferative test, impedance biosensor CReMS; conditions: continuous recording throughout the test period, untreated control cells
Description: (§1) A CELx Anti-Proliferative test was performed using cells from two breast cancer patients (Patients B1 and B2) and the drug Paclitaxel. The physiologic change of the Bland B2 cells during the test was measured with an impedance biosensor CReMS and the output from the CReMS is recorded in FIGS. 2A and 2B. The comparison of the CELx test results and the third party clinical reference is recorded in FIG. 2C.
(§2) The CReMS, microplate, reagents, and buffers used in Example 1 are the same as those employed in Example 2, except for the therapeutic agent tested. In Example 2, the therapeutic agent, paclitaxel, was tested. Paclitaxel was purchased from Selleck Chemicals (TX, USA).
(§3) Between 6,000-12,000 cells in each well were seeded onto the impedance microplate containing 120 uL settling media with serum. Forty microliters of the drug paclitaxel were added to one set each of the B1 and B2 cells; another control set of B1 and B2 cells received no drug. The CReMS recording of physiologic change was maintained continuously from when the cells were first seeded on the microplate through complete cellular response, which was between 48-72 hours. The test was performed at 37° C., 5% CO2 and at 75% relative humidity.

[2] = system: Patient B2 breast cancer cells; test: as above; conditions: continuous recording
Description: as §1, §2, §3

[3] = system: Patient C2 colon cancer cells; test: CELx Combination test, impedance biosensor CReMS; conditions: Patient C2 cells (printed Patient 2), single drug
Description: The physiologic change of the C1 and C2 cells during the test was measured with an impedance biosensor CReMS and the output from the CReMS is recorded in FIGS. 3A and 3B.
Between 6,000-12,000 cells in each well were seeded into the impedance microplate containing 120 uL settling media with serum. The solution was replaced with media containing no serum to synchronize the cells with respect to physiologic state. […] The CReMS recording of physiologic change was maintained continuously from when the cells were first seeded on the microplate through complete cellular response, which was between 48-72 hours. The test was performed at 37° C., 5% CO2 and at 75% relative humidity.

[4] = system: Patient B1 HER2 overexpressing breast cancer cells; test: CELx Pathway Shutdown test, impedance biosensor CReMS, EGF stimulation; conditions: drug added two hours before EGF pathway stimulation, compared to stimulation with no drug
Text: The change in impedance for a particular well is proportional to the number of cells and type of attachment the cells have with the impedance microplate. Changes in impedance indicate a response to perturbation of these small cell populations.
Prior to addition to the impedance microplate, the cells were removed from their growth container with versene, counted, and re-suspended in media without serum or other growth factors.
The solution was replaced with media containing no serum to synchronize the cells with respect to physiologic state and pathway stimulation. Twenty microliters of drugs were added to the no-serum media two hours in advance of pathway stimulation.

[5] = system: breast cancer patient cells; test: CELx Pathway Shutdown single drug test (Example 4), impedance biosensor CReMS; conditions: one patient breast cancer cell sample expected to be a responder
Description: Between 6,000-12,000 cells in each well were seeded onto the impedance microplate containing 120 uL standard media with serum. The solution was replaced with media containing no serum to synchronize the cells with respect to physiologic state and pathway stimulation. Twenty microliters of drugs were added to the no-serum media two hours in advance of pathway stimulation. Pathway stimulation was initiated using EC80 doses of receptor ligand (typically 6 nM in 20 uL). The CReMS recording of physiologic change was maintained continuously for several hours from buffer exchange through complete cellular response to the pathway stimulation. The pathway test was performed at 37° C., 5% CO2 and at a relative humidity 75%.
The physiologic change of the cells and drugs tested was measured with an impedance biosensor CReMS and the summary output from the CReMS is recorded in FIG. 4. The correlation between these CELx test results and the third party clinical reference is recorded in FIG. 7.
In those experiments involving anti-proliferative drugs (capecitabine, docetaxel, fluorouracil, paclitaxel, topotecan, cisplatin, and oxiliplatin), the procedures described in Example 2 were utilized. In those experiments involving a combination of drugs, the procedures described in Example 3 were utilized. The list of patient cells and the drug tested with the cells is characterized in FIG. 4.

## CC(=O)O[C@H]1C(=O)[C@@]2(C)[C@H]([C@H](OC(=O)c3ccccc3)[C@]3(O)C[C@H](OC(=O)[C@H](O)[C@@H](NC(=O)c4ccccc4)c4ccccc4)C(C)=C1C3(C)C)[C@]1(OC(C)=O)CO[C@@H]1C[C@@H]2O [Paclitaxel]
[1]
  responsiveness: decrease in CReM output compared to control cells: immediate and continuous responsiveness
[2]
  time after which CReM output reverses (test cells begin proliferating, no longer responsive): roughly 24 hours
[2]; untreated control cells
  responsiveness: decrease in CReM output compared to control cells: initial responsiveness

## CCc1c2c(nc3ccc(OC(=O)N4CCC(N5CCCCC5)CC4)cc13)-c1cc3c(c(=O)n1C2)COC(=O)[C@]3(O)CC [irinotecan, Irinotecan]
[3]
  responsiveness to each individual drug: responsive

## CS(=O)(=O)CCNCc1ccc(-c2ccc3ncnc(Nc4ccc(OCc5cccc(F)c5)c(Cl)c4)c3c2)o1 [lapatinib, Lapatinib]
[4]
  change (decrease) of cell index of the test cells after drug added: over 50%

## COc1cc2ncnc(Nc3ccc(F)c(Cl)c3)c2cc1OCCCN1CCOCC1 [gelfitinib, gefitinib]
[5]
  response in the CReMS testing: did not show a response

Reference: patent US10976307B2, “Whole cell assays and methods” (Celcuity Inc., priority 2012, dated 2021)
